# Laboratory results from ChEMBL document CHEMBL1153898, “Indolyl-pyrrolone as a new scaffold for Pim1 inhibitors” (Bioorg Med Chem Lett, 2009).
# Calls of active or inactive are those of the source. The calls are words filed in the database; no cut-off is given here.
# Molecular target: T1, Serine/threonine-protein kinase pim-1 (Homo sapiens, UniProt P11309)
# Experiment: Inhibition of human recombinant Pim1 expressed in insect cells at 100 uM
# Details: not given
# Target sequence in this assay (P11309 whole entry, looked up): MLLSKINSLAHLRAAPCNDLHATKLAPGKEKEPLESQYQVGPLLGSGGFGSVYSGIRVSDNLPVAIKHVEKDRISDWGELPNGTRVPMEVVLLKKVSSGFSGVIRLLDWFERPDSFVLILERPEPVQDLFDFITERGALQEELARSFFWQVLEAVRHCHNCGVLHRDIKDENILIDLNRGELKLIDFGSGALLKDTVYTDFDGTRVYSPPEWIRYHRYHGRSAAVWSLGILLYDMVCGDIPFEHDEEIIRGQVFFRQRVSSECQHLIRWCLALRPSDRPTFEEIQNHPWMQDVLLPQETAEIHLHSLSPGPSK
row,SMILES,inhibition
1,CC(Cc1ccccc1)NC(=O)C(c1ccc(N)cc1)c1ccc(N)cc1 (stereo unspecified),-7%
2,CCc1ccc(C2C(C(C)=O)=C(O)C(=O)N2CCc2c[nH]c3ccccc23)cc1 (stereo unspecified),79%
3,CC(=O)Nc1ccc(-c2csc(-c3c[nH]c4ccccc34)n2)cc1,1%
4,CC(=O)C1=C(O)C(=O)N(CCc2c[nH]c3ccccc23)C1c1ccc(O)cc1 (stereo unspecified),92%
5,CC(=O)C1=C(O)C(=O)N(CCc2c[nH]c3ccccc23)C1c1cccc(O)c1 (stereo unspecified),84%
6,CCOc1ccc(C2C(C(C)=O)=C(O)C(=O)N2CCc2c[nH]c3ccccc23)cc1 (stereo unspecified),71%
7,CC(=O)C1=C(O)C(=O)N(CCc2c[nH]c3ccccc23)C1c1ccc(C)cc1 (stereo unspecified),54%
8,CN1C2C=C(N(CCc3c[nH]c4ccccc34)C(=O)c3ccc(Cl)cc3)CCC1CC2 (stereo unspecified),30%
9,COc1cc(C2C(C(C)=O)=C(O)C(=O)N2CCc2c[nH]c3ccccc23)ccc1O (stereo unspecified),90%
10,O/N=C/c1ccccc1OCC(O)Cn1c2ccccc2c2ccccc21 (stereo unspecified),75%
11,C/C(=C/c1sc2ccccc2[n+]1CCO)C/C=C1/Sc2ccccc2N1CCO,-4%
12,COC(=O)c1ccc(C2C(C(C)=O)=C(O)C(=O)N2CCc2c[nH]c3ccccc23)cc1 (stereo unspecified),57%

# Molecular target: T1, Serine/threonine-protein kinase pim-1
# Experiment: Inhibition of human recombinant Pim1 expressed in insect cells by HTRF
# Details: not given
# Target sequence in this assay (P11309 whole entry): as the sequence (P11309 whole entry, looked up) above
SMILES,Ki,IC50
CCc1ccc(C2C(C(C)=O)=C(O)C(=O)N2CCc2c[nH]c3ccccc23)cc1 (stereo unspecified),2.1 µM,
CC(=O)C1=C(O)C(=O)N(CCc2c[nH]c3ccccc23)C1c1ccc(O)cc1 (stereo unspecified),2.2 µM,
CN(C)CCCn1cc(C2=C(c3cn(C)c4ccccc34)C(=O)NC2=O)c2ccccc21,,0.15 µM
CCOc1ccc(C2C(C(C)=O)=C(O)C(=O)N2CCc2c[nH]c3ccccc23)cc1 (stereo unspecified),4.2 µM,
CN1C2C=C(N(CCc3c[nH]c4ccccc34)C(=O)c3ccc(Cl)cc3)CCC1CC2 (stereo unspecified),,2.1 µM
COc1cc(C2C(C(C)=O)=C(O)C(=O)N2CCc2c[nH]c3ccccc23)ccc1O (stereo unspecified),4.5 µM,
O/N=C/c1ccccc1OCC(O)Cn1c2ccccc2c2ccccc21 (stereo unspecified),,16 µM

# Test system: LNCaP
# Experiment: Antiproliferative activity against human LNCAP cells assessed as reduction in cell number after 72 hrs
# Type: functional, cell-based
# Details: not given
row,SMILES,IC50
1,CCc1ccc(C2C(C(C)=O)=C(O)C(=O)N2CCc2c[nH]c3ccccc23)cc1 (stereo unspecified),10.6 µM

# Test system: PC-3
# Experiment: Cell cycle arrest in human PC3 cells assessed as accumulation at G1 phase at 10 uM after 72 hrs by cytofluorimetric assay
# Type: functional
# Details: not given
row,SMILES,Activity
1,CCc1ccc(C2C(C(C)=O)=C(O)C(=O)N2CCc2c[nH]c3ccccc23)cc1 (stereo unspecified),64.24%

# Test system: PC-3
# Experiment: Cell cycle arrest in human PC3 cells assessed as accumulation at G2 phase at 10 uM after 72 hrs by cytofluorimetric assay
# Type: functional
# Details: not given
row,SMILES,Activity
1,CCc1ccc(C2C(C(C)=O)=C(O)C(=O)N2CCc2c[nH]c3ccccc23)cc1 (stereo unspecified),14.94%

# Test system: PC-3
# Experiment: Cell cycle arrest in human PC3 cells assessed as accumulation at S phase at 10 uM after 72 hrs by cytofluorimetric assay
# Type: functional
# Details: not given
row,SMILES,Activity
1,CCc1ccc(C2C(C(C)=O)=C(O)C(=O)N2CCc2c[nH]c3ccccc23)cc1 (stereo unspecified),20.81%

# Test system: LNCaP
# Experiment: Cell cycle arrest in human LNCAP cells assessed as accumulation at G1 phase at 10 uM after 72 hrs by cytofluorimetric assay
# Type: functional
# Details: not given
row,SMILES,Activity
1,CCc1ccc(C2C(C(C)=O)=C(O)C(=O)N2CCc2c[nH]c3ccccc23)cc1 (stereo unspecified),39.47%

# Test system: LNCaP
# Experiment: Cell cycle arrest in human LNCAP cells assessed as accumulation at G2 phase at 10 uM after 72 hrs by cytofluorimetric assay
# Type: functional
# Details: not given
row,SMILES,Activity
1,CCc1ccc(C2C(C(C)=O)=C(O)C(=O)N2CCc2c[nH]c3ccccc23)cc1 (stereo unspecified),25.61%

# Test system: LNCaP
# Experiment: Cell cycle arrest in human LNCAP cells assessed as accumulation at S phase at 10 uM after 72 hrs by cytofluorimetric assay
# Type: functional
# Details: not given
row,SMILES,Activity
1,CCc1ccc(C2C(C(C)=O)=C(O)C(=O)N2CCc2c[nH]c3ccccc23)cc1 (stereo unspecified),34.92%

# Molecular target: T1, Serine/threonine-protein kinase pim-1
# Experiment: Inhibition of recombinant Pim1 by scintillation counter
# Details: not given
# Target sequence in this assay (P11309 whole entry, looked up): as above
row,SMILES,ID50
1,CCc1ccc(C2C(C(C)=O)=C(O)C(=O)N2CCc2c[nH]c3ccccc23)cc1 (stereo unspecified),4.5 µM
2,CC(=O)C1=C(O)C(=O)N(CCc2c[nH]c3ccccc23)C1c1ccc(O)cc1 (stereo unspecified),5.2 µM
3,CC(=O)C1=C(O)C(=O)N(CCc2c[nH]c3ccccc23)C1c1cccc(O)c1 (stereo unspecified),19 µM
4,CCOc1ccc(C2C(C(C)=O)=C(O)C(=O)N2CCc2c[nH]c3ccccc23)cc1 (stereo unspecified),12 µM
5,CC(=O)C1=C(O)C(=O)N(CCc2c[nH]c3ccccc23)C1c1ccc(C)cc1 (stereo unspecified),10 µM
6,COc1cc(C2C(C(C)=O)=C(O)C(=O)N2CCc2c[nH]c3ccccc23)ccc1O (stereo unspecified),9.5 µM
7,COC(=O)c1ccc(C2C(C(C)=O)=C(O)C(=O)N2CCc2c[nH]c3ccccc23)cc1 (stereo unspecified),13 µM

# Molecular target: T1, Serine/threonine-protein kinase pim-1
# Experiment: Inhibition of recombinant Pim1 with increasing concentration of ATP
# Details: not given
# Target sequence in this assay (P11309 whole entry, looked up): as above
row,SMILES,Activity
1,CCc1ccc(C2C(C(C)=O)=C(O)C(=O)N2CCc2c[nH]c3ccccc23)cc1 (stereo unspecified),Active
2,CC(=O)C1=C(O)C(=O)N(CCc2c[nH]c3ccccc23)C1c1ccc(O)cc1 (stereo unspecified),Active
3,CC(=O)C1=C(O)C(=O)N(CCc2c[nH]c3ccccc23)C1c1cccc(O)c1 (stereo unspecified),Active
4,CCOc1ccc(C2C(C(C)=O)=C(O)C(=O)N2CCc2c[nH]c3ccccc23)cc1 (stereo unspecified),Active
5,CC(=O)C1=C(O)C(=O)N(CCc2c[nH]c3ccccc23)C1c1ccc(C)cc1 (stereo unspecified),Active
6,COc1cc(C2C(C(C)=O)=C(O)C(=O)N2CCc2c[nH]c3ccccc23)ccc1O (stereo unspecified),Active
7,COC(=O)c1ccc(C2C(C(C)=O)=C(O)C(=O)N2CCc2c[nH]c3ccccc23)cc1 (stereo unspecified),Active

# Test system: PC-3
# Experiment: Antiproliferative activity against human PC3 cells assessed as reduction in cell number after 72 hrs
# Type: functional, cell-based
# Details: PC-3, 72 h
row,SMILES,IC50
1,CCc1ccc(C2C(C(C)=O)=C(O)C(=O)N2CCc2c[nH]c3ccccc23)cc1 (stereo unspecified),10.1 µM
